# Read-outs that look alike come from different tables or passages of the source. Numbered stars: 1 amine (or outer) side, 2 acyl side, 3 side chain; on linkers, the order of the positions; unused ones are H or OH. Bridge positions count the residues as written; N and C are the ends. Square brackets hold non-standard residues; d marks the D form. Peptide text beside a SMILES is read from it. * marks the point of attachment. DOTA = O=C(O)CN1CCN(CC(=O)O)CCN(CC(=O)*)CCN(CC(=O)O)CC1; Phe(3-CF3) = N[C@@H](Cc1cccc(C(F)(F)F)c1)C(=O)O; Phe(4-Cl) = N[C@@H](Cc1ccc(Cl)cc1)C(=O)O; Arg(Me) = CNC(=N)NCCC[C@H](N)C(=O)O; X4 = O=C(CN1CCC(N[*:1])CC1)[*:2]; X1 = O=C(CC1CCN([*:1])CC1)[*:2]; Lys(Me) = CNCCCC[C@H](N)C(=O)O; Thr(ol) = C[C@@H](O)[C@H](N)CO; Tle = CC(C)(C)[C@H](N)C(=O)O; αMeS = C[C@](N)(CO)C(=O)O; Aib = CC(C)(N)C(=O)O
# Key:
# [1] = biological target: T1, Fc-fusion protein of human PSMA (hPSMA-Fc) (Homo sapiens, UniProt Q04609); assay: Surface plasmon resonance assay (Biacore T200, single cycle kinetic); assay type: binding; settings: hPSMA-Fc, 25° C., read-out: pKD CAT (converted)
# T1 construct: purchased Acro Biosystems PSA-H5264
# T1 sequence (Q04609 44-750 limits assumed): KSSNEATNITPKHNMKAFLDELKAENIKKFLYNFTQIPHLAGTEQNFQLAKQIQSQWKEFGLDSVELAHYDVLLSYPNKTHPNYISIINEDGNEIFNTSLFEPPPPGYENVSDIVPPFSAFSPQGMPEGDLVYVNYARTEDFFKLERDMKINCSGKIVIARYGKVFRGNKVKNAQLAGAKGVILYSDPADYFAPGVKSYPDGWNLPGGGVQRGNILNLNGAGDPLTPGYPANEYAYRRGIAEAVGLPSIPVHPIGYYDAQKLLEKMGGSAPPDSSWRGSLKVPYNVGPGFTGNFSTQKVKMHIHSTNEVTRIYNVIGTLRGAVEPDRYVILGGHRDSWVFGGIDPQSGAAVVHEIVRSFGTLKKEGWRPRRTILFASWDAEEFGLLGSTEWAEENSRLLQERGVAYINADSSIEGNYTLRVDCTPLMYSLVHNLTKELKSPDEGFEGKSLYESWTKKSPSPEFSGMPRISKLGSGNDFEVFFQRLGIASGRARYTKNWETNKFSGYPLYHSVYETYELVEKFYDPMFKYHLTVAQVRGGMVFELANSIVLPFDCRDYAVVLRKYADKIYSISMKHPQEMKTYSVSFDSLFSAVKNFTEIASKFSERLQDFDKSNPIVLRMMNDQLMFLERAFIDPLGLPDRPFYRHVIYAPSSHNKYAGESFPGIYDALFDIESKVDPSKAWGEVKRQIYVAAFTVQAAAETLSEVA
# How it was run: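 KD, expressed as pKD, came from 1:1 Langmuir fits of reference- and buffer-blank-subtracted SPR data. The runs were single-cycle kinetics at 25° C in HBST/0.1% DMSO over human PSMA-Fc, captured to ~1000 RU on a peptide-coated CM5 surface and regenerated with 10 mM glycine pH 1.5.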
# [2] = biological target: T2, PSMA-expressing C4-2 cells (Homo sapiens, UniProt Q04609); assay: FACS binding assay (competition with 50 nM PSM-0183); settings: read-out: pIC50 [C4-2] CAT (converted)
# T2 construct: PSMA-expressing C4-2 cells (ATCC, Cat. No. CRL-3314) were cultured in RPMI-1640; host or cells: C4-2 cells
# T2 sequence (Q04609 whole entry): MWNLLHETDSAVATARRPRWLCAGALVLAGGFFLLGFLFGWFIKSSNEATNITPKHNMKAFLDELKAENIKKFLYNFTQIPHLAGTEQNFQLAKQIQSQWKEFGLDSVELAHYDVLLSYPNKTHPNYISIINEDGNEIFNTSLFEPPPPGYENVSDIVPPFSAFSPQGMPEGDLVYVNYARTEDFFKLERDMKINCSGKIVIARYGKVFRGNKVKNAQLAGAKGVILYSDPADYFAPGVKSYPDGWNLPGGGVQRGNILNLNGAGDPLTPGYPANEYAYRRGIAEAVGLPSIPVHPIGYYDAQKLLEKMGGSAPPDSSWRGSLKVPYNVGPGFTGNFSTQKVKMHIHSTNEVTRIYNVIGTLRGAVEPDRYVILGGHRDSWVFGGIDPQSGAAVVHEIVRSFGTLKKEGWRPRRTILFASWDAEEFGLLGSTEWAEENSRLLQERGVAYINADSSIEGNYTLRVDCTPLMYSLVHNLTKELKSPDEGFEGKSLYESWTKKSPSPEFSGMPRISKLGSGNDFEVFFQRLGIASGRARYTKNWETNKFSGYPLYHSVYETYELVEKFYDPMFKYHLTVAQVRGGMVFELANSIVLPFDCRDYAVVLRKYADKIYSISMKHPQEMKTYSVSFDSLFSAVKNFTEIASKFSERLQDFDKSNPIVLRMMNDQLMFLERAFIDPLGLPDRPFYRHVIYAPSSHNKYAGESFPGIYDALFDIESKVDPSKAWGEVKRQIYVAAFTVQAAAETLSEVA
# How it was run: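 Competition format: fluorescent tracer PSM-0183 (50 nM) displaced from PSMA on C4-2 cells by a test compound titration over 1 h at 4 °C. Bound tracer was quantified as flow-cytometric AF488 median fluorescence after washing. Four-parameter logistic fits of MFI data gave IC50 and pIC50.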
# [3] = pKD category for PSMA SPR activity assay
# [4] = pIC50 category of FACS binding, C4-2 cells
# [5] = FACS binding, PSMA-expressing C4-2 cells, pIC50 category
"Kd [1, 3] [nM]","IC50 [2, 4] [nM]",Compound,also measured
12.6 to 126,< 200,"CC(=O)N[C@H](C(=O)NC(C)(C)C(=O)N[C@@H](Cc1ccc(O)cc1)C(=O)N[C@H]1CSSC[C@@H](C(=O)N[C@H](C(=O)N[C@H](C(=O)N[C@@H](CC(=O)O)C(N)=O)[C@@H](C)O)C(C)(C)C)NC(=O)[C@H](CC(N)=O)NC(=O)C(C)(C)NC(=O)[C@H](CCCNC(=N)N)NC(=O)[C@H](CCCCN)NC1=O)[C@@H](C)O [PSM-0488, Ac-Thr-Aib-Tyr-[Cys-Lys-Arg-Aib-Asn-Cys]-Tle-Thr-Asp-NH2] (Ac-T[Aib]YCKR[Aib]NC[Tle]TD-NH2; disulfide 4-9)",
< 12.6,< 200,"CC(=O)N[C@H](C(=O)NC(C)(C)C(=O)N[C@@H](Cc1ccc(Cl)cc1)C(=O)N[C@H]1CSSC[C@@H](C(=O)N[C@H](C(=O)N[C@H](CO)[C@@H](C)O)C(C)(C)C)NC(=O)[C@H](CC(N)=O)NC(=O)C(C)(C)NC(=O)[C@H](CCCNC(=N)N)NC(=O)[C@H](CCCCN)NC1=O)[C@@H](C)O [PSM-0554, Ac-Thr-Aib-Pcf-[Cys-Lys-Arg-Aib-Asn-Cys]-Tle-Throl-OH] (Ac-T[Aib][Phe(4-Cl)]CKR[Aib]NC[Tle][Thr(ol)]; disulfide 4-9)",
< 12.6,< 200,"CC(=O)NC(C)(C)C(=O)N[C@@H](Cc1ccccc1)C(=O)N[C@H]1CSSC[C@@H](C(=O)N[C@H](C(=O)N[C@H](C(=O)N[C@@H](CC(=O)O)C(N)=O)[C@@H](C)O)C(C)(C)C)NC(=O)[C@H](CC(N)=O)NC(=O)[C@H](C)NC(=O)[C@H](CCCNC(=N)N)NC(=O)[C@H](CCCCN)NC1=O [PSM-0506, Ac-Aib-Pho-[Cys-Lys-Arg-Ala-Asn-Cys]-Tle-Thr-Asp-NH2] (Ac-[Aib]FCKRANC[Tle]TD-NH2; disulfide 3-8)",
< 12.6,< 200,"C[C@@H](O)[C@H](NC(=O)[C@@H](NC(=O)[C@@H]1CSSC[C@H](NC(=O)[C@H](Cc2ccc(Cl)cc2)NC(=O)C(C)(C)NC(=O)[C@@H](NC(=O)CC2CCN(C(=O)CN3CCN(CC(=O)O)CCN(CC(=O)O)CCN(CC(=O)O)CC3)CC2)[C@@H](C)O)C(=O)N[C@@H](CCCCN)C(=O)N[C@@H](CCCNC(=N)N)C(=O)N[C@@](C)(CO)C(=O)N[C@@H](CC(N)=O)C(=O)N1)C(C)(C)C)C(N)=O [PSM-0382, DOTA-Cmp-Thr-Aib-Pcf-[Cys-Lys-Arg-Ams-Asn-Cys]-Tle-Thr-NH2] ({DOTA}-[X1]T[Aib][Phe(4-Cl)]CKR[αMeS]NC[Tle]T-NH2; disulfide 5-10)",
,,"C[C@@H](O)[C@H](NC(=O)[C@@H](NC(=O)[C@@H]1CSSC[C@H](NC(=O)[C@H](Cc2ccc(Cl)cc2)NC(=O)[C@H](CCC(=O)O)NC(=O)[C@@H](NC(=O)CC2CCN(C(=O)CN3CCN(CC(=O)O)CCN(CC(=O)O)CCN(CC(=O)O)CC3)CC2)[C@@H](C)O)C(=O)N[C@@H](CCCCN)C(=O)N[C@@H](CCCNC(=N)N)C(=O)NC(C)(C)C(=O)N[C@@H](CC(N)=O)C(=O)N1)C(C)(C)C)C(N)=O [PSM-0276, DOTA-Cmp-Thr-Glu-Pcf-[Cys-Lys-Arg-Aib-Asn-Cys]-Tle-Thr-NH2] ({DOTA}-[X1]TE[Phe(4-Cl)]CKR[Aib]NC[Tle]T-NH2; disulfide 5-10)","Kd ([1]; PSMA SPR assay, pKD category): > 501 nM; IC50 [2, 5]: > 3160 nM"
< 12.6,< 200,"CNCCCC[C@@H]1NC(=O)[C@@H](NC(=O)[C@H](Cc2cccc(C(F)(F)F)c2)NC(=O)C(C)(C)NC(=O)[C@@H](NC(=O)CC2CCN(C(=O)CN3CCN(CC(=O)O)CCN(CC(=O)O)CCN(CC(=O)O)CC3)CC2)[C@@H](C)O)CSSC[C@@H](C(=O)N[C@H](C(N)=O)C(C)(C)C)NC(=O)[C@H](CC(N)=O)NC(=O)C(C)(C)NC(=O)[C@H](CCCNC(=N)NC)NC1=O [PSM-0396, DOTA-Cmp-Thr-Aib-Mtf-[Cys-Lys(Me)-Arg(Me)-Aib-Asn-Cys]-Tle-NH2] ({DOTA}-[X1]T[Aib][Phe(3-CF3)]C[Lys(Me)][Arg(Me)][Aib]NC[Tle]-NH2; disulfide 5-10)",
,,C[C@@H](O)[C@H](NC(=O)[C@@H](NC(=O)[C@@H]1CSSC[C@H](NC(=O)[C@H](Cc2ccc(Cl)cc2)NC(=O)C(C)(C)NC(=O)CN2CCC(NC(=O)CN3CCN(CC(=O)O)CCN(CC(=O)O)CCN(CC(=O)O)CC3)CC2)C(=O)N[C@@H](CCCCN)C(=O)N[C@@H](CCCNC(=N)N)C(=O)NC(C)(C)C(=O)N[C@@H](CC(N)=O)C(=O)N1)C(C)(C)C)C(N)=O [PSM-0263] ({DOTA}-[X4][Aib][Phe(4-Cl)]CKR[Aib]NC[Tle]T-NH2; disulfide 4-9),"Kd ([1]; SPR, single cycle kinetic, category): < 12.6 nM; IC50 ([2]; FACS binding, C4-2 cells, competition with 50 nM PSM-0183, category): < 200 nM"
,,"CC(=O)N[C@H](C(=O)NC(C)(C)C(=O)N[C@@H](Cc1ccccc1)C(=O)N[C@H]1CSSC[C@@H](C(=O)N[C@H](C(=O)O)C(C)(C)C)NC(=O)[C@H](CC(N)=O)NC(=O)C(C)(C)NC(=O)[C@H](CCCNC(=N)N)NC(=O)[C@H](CCCCN)NC1=O)[C@@H](C)O [PSM-0300, Ac-Thr-Aib-Phe-[Cys-Lys-Arg-Aib-Asn-Cys]-Tle-OH] (Ac-T[Aib]FCKR[Aib]NC[Tle]-OH; disulfide 4-9)","Kd ([1]; PSMA SPR assay, pKD category): < 12.6 nM; IC50 [2, 5]: < 200 nM"

# From US20260083865A1, “PROSTATE SPECIFIC MEMBRANE ANTIGEN (PSMA) LIGANDS AND USE THEREOF” (priority 2022, published 2026)
